From ChEMBL document CHEMBL5252621, “Effective Combination Therapies for the Treatment of HER2 Cancer” (2023)

Key:
HCC1954 [1] = experiment: Antitumor activity against human HCC1954 cells xenografted in NCR nude mouse model assessed as tumor growth inhibition at 25 mg/kg via oral gavage administered for 28 days by caliper method; assay type: functional; conditions: HCC1954, 672 h, time 28 day, read-out: TGI
HCC1954 [2] = experiment: Antitumor activity against human HCC1954 cells xenografted in NCR nude mouse model assessed as tumor growth inhibition at 25 mg/kg via oral gavage administered for 28 days in presence of trastuzumab/pertuzumab by caliper method; assay type: functional; conditions: HCC1954, 672 h, time 28 day, read-out: TGI

C[C@H](Nc1ccc2c(c1)OCCn1cc(N3C(=O)OC[C@H]3C(F)F)nc1-2)C(N)=O [INAVOLISIB]
inhibition in vivo at 25 mg/kg (HCC1954 [1]): 122%
inhibition in vivo at 25 mg/kg (HCC1954 [2]): 148%
